In patent US20060173015A1, “Cyclohexyldiamines as selective alpha 1a/1d adrenoreceptor antagonists for the treatment of benign prostatic hypertrophy and lower urinary tract symptoms” (priority 2004, published 2006):
Structures can show the parent of a compound that is named as a salt.

What was measured:
α1d-AR = target: T1, α1d-AR (Homo sapiens, UniProt P25100); assay: α1-Adrenergic receptor radio-ligand (125I-HEAT) binding assay, α1d subtype; conditions: COS-7 cell membranes, 125I-HEAT; read-out: Receptor Binding, Ki α1d-AR
T1 construct: expressed in transfected cells; host or cells: COS-7
T1 sequence (P25100 1-572): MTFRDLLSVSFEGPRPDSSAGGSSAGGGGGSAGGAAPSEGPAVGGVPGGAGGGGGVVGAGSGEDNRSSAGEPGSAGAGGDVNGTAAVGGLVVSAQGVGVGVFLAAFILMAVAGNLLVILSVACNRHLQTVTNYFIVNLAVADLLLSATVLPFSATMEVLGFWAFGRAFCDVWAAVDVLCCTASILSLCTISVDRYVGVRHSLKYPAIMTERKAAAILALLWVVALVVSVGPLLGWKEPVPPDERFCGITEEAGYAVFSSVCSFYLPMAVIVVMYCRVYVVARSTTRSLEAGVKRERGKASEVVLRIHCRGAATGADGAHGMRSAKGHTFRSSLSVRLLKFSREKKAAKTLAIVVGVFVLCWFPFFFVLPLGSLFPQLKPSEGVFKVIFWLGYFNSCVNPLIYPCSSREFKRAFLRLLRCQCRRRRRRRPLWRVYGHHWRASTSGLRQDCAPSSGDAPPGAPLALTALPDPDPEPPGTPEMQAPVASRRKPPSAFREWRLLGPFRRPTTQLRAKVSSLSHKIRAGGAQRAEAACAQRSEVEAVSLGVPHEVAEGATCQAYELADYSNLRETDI

α1a-AR = target: T2, α1a-AR (Homo sapiens, UniProt P35348); assay: α1-Adrenergic receptor radio-ligand (125I-HEAT) binding assay, α1a subtype; conditions: COS-7 cell membranes, 125I-HEAT
T2 construct: expressed in transfected cells; host or cells: COS-7
T2 sequence (P35348 1-466): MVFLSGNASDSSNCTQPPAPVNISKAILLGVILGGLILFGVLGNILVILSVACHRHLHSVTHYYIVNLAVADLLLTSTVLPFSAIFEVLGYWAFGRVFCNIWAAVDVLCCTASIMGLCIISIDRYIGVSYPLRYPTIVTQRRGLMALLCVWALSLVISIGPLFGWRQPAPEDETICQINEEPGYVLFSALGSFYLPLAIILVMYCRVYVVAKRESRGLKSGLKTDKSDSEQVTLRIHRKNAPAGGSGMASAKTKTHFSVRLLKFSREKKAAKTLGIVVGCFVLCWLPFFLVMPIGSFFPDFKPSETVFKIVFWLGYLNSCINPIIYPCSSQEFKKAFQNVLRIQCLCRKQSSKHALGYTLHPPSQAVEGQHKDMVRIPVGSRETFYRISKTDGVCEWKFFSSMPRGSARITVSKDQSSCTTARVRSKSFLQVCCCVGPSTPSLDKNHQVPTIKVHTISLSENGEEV
Procedure, shortened: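 Membranes from COS-7 cells transfected with the α1a-AR were incubated with 50 pM final ¹²⁵I-HEAT and test compound (1 pM–10 μM final, half-log steps) in Tris/EDTA/NaCl buffer pH 7.4 for 1 hr at rt. Bound radioactivity was counted after GF/C filtration, in triplicate.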

α1b-AR = target: T3, α1b-AR (Homo sapiens, UniProt P35368); assay: α1-Adrenergic receptor radio-ligand (125I-HEAT) binding assay, α1b subtype; conditions: Receptor Binding, Ki α1b-AR, COS-7 cell membranes, 125I-HEAT
T3 sequence (P35368 1-520): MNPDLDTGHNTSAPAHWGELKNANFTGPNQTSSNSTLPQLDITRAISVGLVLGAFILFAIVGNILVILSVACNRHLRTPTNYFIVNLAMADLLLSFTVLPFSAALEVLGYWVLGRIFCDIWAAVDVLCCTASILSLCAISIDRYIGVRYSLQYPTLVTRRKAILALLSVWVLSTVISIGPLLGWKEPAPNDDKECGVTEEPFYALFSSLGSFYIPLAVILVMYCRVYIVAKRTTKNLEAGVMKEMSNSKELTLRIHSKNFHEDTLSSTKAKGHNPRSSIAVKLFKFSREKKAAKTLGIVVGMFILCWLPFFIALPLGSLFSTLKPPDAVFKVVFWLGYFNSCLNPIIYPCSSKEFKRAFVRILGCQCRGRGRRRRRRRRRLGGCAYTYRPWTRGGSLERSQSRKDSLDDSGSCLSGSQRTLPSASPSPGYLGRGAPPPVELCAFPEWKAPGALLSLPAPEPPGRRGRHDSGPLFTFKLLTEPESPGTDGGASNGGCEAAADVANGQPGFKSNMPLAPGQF

micturition pressure = conditions: intrathecal; normal rats and rats with bladder hypertrophy secondary to outlet obstruction; cited from earlier work
[1] = tested on: α1a and α1d subtypes over the α1b subtype; conditions: cited from earlier work
BPH patients = conditions: large clinical trials of BPH patients; cited from earlier work

| Ki (α1d-AR) | Ki (α1a-AR) | Ki (α1b-AR) | SMILES | other results |
| --- | --- | --- | --- | --- |
| – | – | – | CCN([C@H]1CC[C@@H](N2CCN(c3ccccc3OC(C)C)CC2)CC1)S(=O)(=O)c1ccc(OC)c(OC)c1 (as salt: fumarate) [Cpd 67, N-Ethyl-N-cis-{4-[4-(2-isopropoxy-phenyl)-piperazin-1-yl]-cyclohexyl}-3,4-dimethoxy-benzenesulfonamide] | melting point: 199 °C (dec.) |
| – | – | – | COc1ccc(S(=O)(=O)N[C@H]2CC[C@@H](N3CCN(c4cc(F)ccc4OCC(F)(F)F)CC3)CC2)cc1OC (as salt: fumarate) [Cpd 83, N-cis-(4-{4-[5-Fluoro-2-(2,2,2-trifluoro-ethoxy)-phenyl]-piperazin-1-yl}-cyclohexyl)-3,4-dimethoxy-benzenesulfonamide] | melting point: 232 °C |
| – | – | – | COc1ccc(S(=O)(=O)N[C@H]2CC[C@H](N3CCN(c4cc(F)ccc4OCC(F)(F)F)CC3)CC2)cc1OC (as salt: fumarate) [Cpd 84, N-trans-(4-{4-[5-Fluoro-2-(2,2,2-trifluoro-ethoxy)-phenyl]-piperazin-1-yl}-cyclohexyl)-3,4-dimethoxy-benzenesulfonamide] | melting point: 185 °C |
| 65 nM | 67 nM | 931 nM | CC(C)Oc1ccccc1N1CCN([C@H]2CC[C@H](NS(=O)(=O)c3ccc(C(F)(F)F)cc3)CC2)CC1 [Cpd 37, N-trans-{4-[4-(2-Isopropoxy-phenyl)-piperazin-1-yl]-cyclohexyl}-4-trifluoromethyl-benzenesulfonamide] | – |
| 36.1 nM | 33 nM | 220 nM | COc1ccc(S(=O)(=O)N[C@H]2CC[C@H](N3CCN(c4cc(F)ccc4OCC(F)(F)F)CC3)CC2)cc1OC [Cpd 84, N-trans-(4-{4-[5-Fluoro-2-(2,2,2-trifluoro-ethoxy)-phenyl]-piperazin-1-yl}-cyclohexyl)-3,4-dimethoxy-benzenesulfonamide] | – |
| 66 nM | 11 nM | 714 nM | COc1ccc(F)cc1S(=O)(=O)N[C@H]1CC[C@H](N2CCN(c3ccccc3OC(C)C)CC2)CC1 [Cpd 43, 5-Fluoro-N-trans-{4-[4-(2-isopropoxy-phenyl)-piperazin-1-yl]-cyclohexyl}-2-methoxy-benzenesulfonamide] | – |
| 111 nM | 100 nM | 1250 nM | CC(C)Oc1ccccc1N1CCN([C@H]2CC[C@H](NS(=O)(=O)c3ccc(OC(F)(F)F)cc3)CC2)CC1 [Cpd 45, N-trans-{4-[4-(2-Isopropoxy-phenyl)-piperazin-1-yl]-cyclohexyl}-4-trifluoromethoxy-benzenesulfonamide] | – |
| – | – | – | COc1cc2nc(N3CCN(C(=O)C4COc5ccccc5O4)CC3)nc(N)c2cc1OC (stereo not shown) [doxazosin] | effect on micturition pressure (micturition pressure): decrease in micturition pressure |
| 5 nM | 6 nM | 162 nM | COc1ccc(F)cc1S(=O)(=O)N[C@H]1CC[C@@H](N2CCN(c3ccccc3OC(C)C)CC2)CC1 [Cpd 15, 5-Fluoro-N-cis-{4-[4-(2-isopropoxy-phenyl)-piperazin-1-yl]-cyclohexyl}-2-methoxy-benzenesulfonamide] | – |
| – | – | – | CCN([C@H]1CC[C@H](N2CCN(c3ccccc3OC(C)C)CC2)CC1)S(=O)(=O)c1ccc(OC)c(OC)c1 (as salt: fumarate) [Cpd 68, N-Ethyl-N-trans-{4-[4-(2-isopropoxy-phenyl)-piperazin-1-yl]-cyclohexyl}-3,4-dimethoxy-benzenesulfonamide] | melting point: 186 °C (dec.) |
| 2.2 nM | 4.3 nM | 85.3 nM | COc1ccc([N+](=O)[O-])cc1S(=O)(=O)N[C@H]1CC[C@@H](N2CCN(c3ccccc3OC(C)C)CC2)CC1 [Cpd 19, N-cis-{4-[4-(2-Isopropoxy-phenyl)-piperazin-1-yl]-cyclohexyl}-2-methoxy-5-nitro-benzenesulfonamide] | – |
| 2.2 nM | 5.6 nM | 101 nM | CC(C)Oc1cc(F)ccc1N1CCN([C@H]2CC[C@@H](NS(=O)(=O)c3cc(Cl)ccc3F)CC2)CC1 [Cpd 74, 5-Chloro-2-fluoro-N-cis-{4-[4-(4-fluoro-2-isopropoxy-phenyl)-piperazin-1-yl]-cyclohexyl}-benzenesulfonamide] | – |
| 22.1 nM | 0.5 nM | 77.6 nM | CC(C)Oc1ccccc1N1CCN([C@H]2CC[C@H](NS(=O)(=O)c3cccc4cccnc34)CC2)CC1 [Cpd 63, Quinoline-8-sulfonic acid N-trans-{4-[4-(2-isopropoxy-phenyl)-piperazin-1-yl]-cyclohexyl}-amide] | – |
| 22 nM | 15 nM | 326 nM | CCN([C@H]1CC[C@@H](N2CCN(c3ccccc3OC(C)C)CC2)CC1)S(=O)(=O)c1ccc(OC)c(OC)c1 [Cpd 67, N-Ethyl-N-cis-{4-[4-(2-isopropoxy-phenyl)-piperazin-1-yl]-cyclohexyl}-3,4-dimethoxy-benzenesulfonamide] | – |
| 46 nM | 5 nM | 400 nM | CC(C)Oc1ccccc1N1CCN([C@H]2CC[C@@H](NS(=O)(=O)c3cccnc3)CC2)CC1 [Cpd 59, Pyridine-3-sulfonic acid N-cis-{4-[4-(2-isopropoxy-phenyl)-piperazin-1-yl]-cyclohexyl}-amide] | – |
| – | – | – | CCOc1ccccc1OCCN[C@H](C)Cc1ccc(OC)c(S(N)(=O)=O)c1 [Tamsulosin] | selectivity for the α1a and α1d subtypes over the α1b subtype [1]: about 15 fold; effect on obstructive and irritative symptoms (BPH patients): improvement in both obstructive and irritative symptoms |
| 246 nM | 18.1 nM | 844 nM | CC(C)Oc1ccccc1N1CCN([C@H]2CC[C@H](NS(=O)(=O)c3ccccc3C(F)(F)F)CC2)CC1 [Cpd 41, N-trans-{4-[4-(2-Isopropoxy-phenyl)-piperazin-1-yl]-cyclohexyl}-2-trifluoromethyl-benzenesulfonamide] | – |
